Patent US8669249B2, “Poly (ADP-ribose) polymerase (PARP) inhibitors” (Takeda Pharmaceutical Company Limited, priority 2009, dated 2014)

Each compound was assayed against T1, catalytic domain of Human PARP (Homo sapiens, UniProt P09874) (assay: Biacore surface plasmon resonance affinity assay). Conditions: pKD=-log10 KD, KD in mol/L; Biacore T100, 25° C.; read-out: pKD (converted).
T1 construct: The catalytic domain of Human PARP was cloned and prepared; made in house
Assay type: binding
Experimental: Dissociation Constant (KD) from Surface Plasmon Resonance
The catalytic domain of Human PARP was cloned and prepared as described in Kinoshita, et al. FEBS Letters (2006), 556:43-46. Purified enzyme was stored at −80° C. in 25 mM Tris(hydroxymethyl)aminomethane (‘Tris’) pH 7.4, 150 mM NaCl, 2 mM dithiothreitol (DTT) at a concentration of 6 mg/mL.
Biacore affinity assays for test compounds were conducted on a Biacore T100 (GE Healthcare) as follows. A Series S Sensor Chip CM5 (part number BR-1006-68, GE Healthcare) was activated for amide coupling with an Amine Coupling Kit (part number BR-1000-50, GE Healthcare) as described by the manufacturer. The mobile phase buffer consisted of Biacore buffer HBS-P (part number BR-1003-68, GE Healthcare) supplemented with 1% v/v dimethylsulfoxide (DMSO), 0.5 mM Tris(2-carboxyethyl)phosphine hydrochloride (TCEP), and 5 mM MgCl2. Enzyme samples (2 μL/6 mg/mL) stored at −80° C. were diluted to 0.080 mg/mL with 10 mM 4-morpholineethanesulfonic acid (MES) pH 6.5 and then mounted on the activated Biacore CM5 chip at a flow rate of 10 μL/min for 240 seconds. […] Test compounds were diluted 9 times 2-fold serially in mobile phase buffer (listed above) at 1% v/v DMSO final to generate a concentration gradient bracketing their anticipated KDs. Biacore mounted PARP was given a 1 minute exposure (association phase) to various concentrations of test compounds to observe a steady state equilibrium or an on-rate. The exposure was followed with a dissociation phase of 5 minutes. The association and dissociation phases were at a flow rate of 50 μL/min and a temperature of 25° C.
Parameters Rmax (response at saturation) and KD (binding constant) were calculated through a nonlinear least squares fitting of the equation to the data by use of the Biacore T100 analysis software.
Parameter optimization was through a nonlinear least squares analysis of the association phase Response=Rmax*(1−exp(−(kon[cmpd]+koff)*t)) and dissociation phase Response=[…] by use of the Biacore T100 analysis software. The binding constant KD was calculated from the definition KD=koff/kon

T1 sequence (P09874 788-1014 limits assumed): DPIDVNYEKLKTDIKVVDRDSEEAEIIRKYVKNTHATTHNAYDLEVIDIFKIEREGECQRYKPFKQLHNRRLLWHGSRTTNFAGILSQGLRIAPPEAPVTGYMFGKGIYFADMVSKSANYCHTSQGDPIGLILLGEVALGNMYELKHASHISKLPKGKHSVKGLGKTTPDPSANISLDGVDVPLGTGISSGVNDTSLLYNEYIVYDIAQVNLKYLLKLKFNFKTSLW

Compound	Kd [µM]
CC1Oc2ccc(CN3CCCc4cc(O)ccc43)cc2NC1=O (stereo not shown) [Compound 84, 6-((6-Hydroxy-3,4-dihydroquinolin-1(2H)-yl)methyl)-2-methyl-2H-benzo[b][1,4]oxazin-3(4H)-one]	> 10
CC1Oc2ccc(CN(C)CCc3ccccc3)cc2NC1=O (stereo not shown) [Compound 85, 2-Methyl-6-((methyl(phenethyl)amino)methyl)-2H-benzo[b][1,4]oxazin-3(4H)-one]	1.26 to 10
CC1Oc2ccc(CN3CCN(CCO)CC3)cc2NC1=O (stereo not shown) [Compound 86, 6-((4-(2-Hydroxyethyl)piperazin-1-yl)methyl)-2-methyl-2H-benzo[b][1,4]oxazin-3(4H)-one]	12.6 to 79.4
CC1Oc2ccc(CN3CCC(CCO)CC3)cc2NC1=O (stereo not shown) [Compound 87, 6-((4-(2-Hydroxyethyl)piperidin-1-yl)methyl)-2-methyl-2H-benzo[b][1,4]oxazin-3(4H)-one]	1.26 to 10
CCOC(=O)CN(C)Cc1ccc2c(c1)NC(=O)C(C)O2 (stereo not shown) [Compound 88, Ethyl 2-(methyl((2-methyl-3-oxo-3,4-dihydro-2H-benzo[b][1,4]oxazin-6-yl)methyl)amino)acetate]	12.6 to 79.4
CC1Oc2cc(CN(C)CCc3ccccc3)ccc2NC1=O (stereo not shown) [Compound 91, 2-Methyl-7-((methyl(phenethyl)amino)methyl)-2H-benzo[b][1,4]oxazin-3(4H)-one]	1.26 to 10
CC1Oc2cc(CN(C)Cc3ccccc3)ccc2NC1=O (stereo not shown) [Compound 92, 7-((Benzyl(methyl)amino)methyl)-2-methyl-2H-benzo[b][1,4]oxazin-3(4H)-one]	12.6 to 79.4
CC1Oc2cc(CN3CC[C@H](c4ccccc4)C3)ccc2NC1=O (stereo partly drawn) [Compound 93, 2-Methyl-7-(((R)-3-phenylpyrrolidin-1-yl)methyl)-2H-benzo[b][1,4]oxazin-3(4H)-one]	1.26 to 10
CC1Oc2cc(CNc3ncc(-c4ccccc4)n3C)ccc2NC1=O (stereo not shown) [Compound 94, 2-Methyl-7-((1-methyl-5-phenyl-1H-imidazol-2-ylamino)methyl)-2H-benzo[b][1,4]oxazin-3(4H)-one]	1.26 to 10
CC1Oc2cc(CN3CCCC(c4ccccc4)C3)ccc2NC1=O (stereo not shown) [Compound 95, 2-Methyl-7-((3-phenylpiperidin-1-yl)methyl)-2H-benzo[b][1,4]oxazin-3(4H)-one]	1.26 to 10
O=C1Nc2cc(CN3CCC(c4ccccc4)CC3)ccc2OC1F (stereo not shown) [Compound 96, 2-Fluoro-6-((4-phenylpiperidin-1-yl)methyl)-2H-benzo[b][1,4]oxazin-3(4H)-one]	0.126 to 1
O=C1Nc2cc(CN3CCN(c4nc5ccccc5[nH]4)CC3)ccc2OC1F (stereo not shown) [Compound 99, 6-((4-(1H-Benzo[d]imidazol-2-yl)piperazin-1-yl)methyl)-2-fluoro-2H-benzo[b][1,4]oxazin-3(4H)-one]	0.126 to 1
O=C1Nc2cc(CN3CC=C(c4ccccc4)CC3)ccc2OC1F (stereo not shown) [Compound 100, 2-Fluoro-6-((4-phenyl-5,6-dihydropyridin-1(2H)-yl)methyl)-2H-benzo[b][1,4]oxazin-3(4H)-one]	0.0126 to 0.1
CCOC(=O)CN1CCN(Cc2ccc3c(c2)NC(=O)C(C)O3)CC1 (stereo not shown) [Compound 102, Ethyl 2-(4-((2-methyl-3-oxo-3,4-dihydro-2H-benzo[b][1,4]oxazin-6-yl)methyl)piperazin-1-yl)acetate]	1.26 to 10
O=C1COc2ccc(C(=O)NCc3ccccc3)cc2N1 [Compound 107, N-Benzyl-3-oxo-3,4-dihydro-2H-benzo[b][1,4]oxazine-6-carboxamide]	≥ 100
O=C1COc2ccc(C(=O)Nc3ccccc3)cc2N1 [Compound 110, 3-Oxo-N-phenyl-3,4-dihydro-2H-benzo[b][1,4]oxazine-6-carboxamide]	≥ 100
O=C1COc2ccc(CCN3CCC(c4ccccc4)CC3)cc2N1 [Compound 125, 6-(2-(4-Phenylpiperidin-1-yl)ethyl)-2H-benzo[b][1,4]oxazin-3(4H)-one]	12.6 to 79.4
O=C1COc2ccc(CCN3CC=C(c4ccc(F)cc4)CC3)cc2N1 [Compound 126, 6-(2-(4-(4-Fluorophenyl)-5,6-dihydropyridin-1(2H)-yl)ethyl)-2H-benzo[b][1,4]oxazin-3(4H)-one]	1.26 to 10
O=C1COc2ccc(CCN3CC=C(c4ccc(Cl)cc4)CC3)cc2N1 [Compound 127, 6-(2-(4-(4-Chlorophenyl)-5,6-dihydropyridin-1(2H)-yl)ethyl)-2H-benzo[b][1,4]oxazin-3(4H)-one]	1.26 to 10
O=C1COc2ccc(CCN3CCN(c4ccncc4)CC3)cc2N1 [Compound 128, 6-(2-(4-(Pyridin-4-yl)piperazin-1-yl)ethyl)-2H-benzo[b][1,4]oxazin-3(4H)-one]	12.6 to 79.4
O=C1COc2ccc(CCN3CCN(c4nc5ccccc5[nH]4)CC3)cc2N1 [Compound 129, 6-(2-(4-(1H-Benzo[d]imidazol-2-yl)piperazin-1-yl)ethyl)-2H-benzo[b][1,4]oxazin-3(4H)-one]	12.6 to 79.4
O=C1COc2ccc(CCN3CCC(c4ccc(F)cc4)CC3)cc2N1 [Compound 130, 6-(2-(4-(4-Fluorophenyl)piperidin-1-yl)ethyl)-2H-benzo[b][1,4]oxazin-3(4H)-one]	1.26 to 10
O=C1COc2ccc(CCN3CCC(c4ccc(Cl)cc4)CC3)cc2N1 [Compound 131, 6-(2-(4-(4-Chlorophenyl)piperidin-1-yl)ethyl)-2H-benzo[b][1,4]oxazin-3(4H)-one]	1.26 to 10

Next, values leading:

Kd [µM]	Compound
≥ 100	O=C1COc2ccc(C(=O)O)cc2N1 [Compound 104, 3-Oxo-3,4-dihydro-2H-benzo[b][1,4]oxazine-6-carboxylic acid]
≥ 100	O=C1COc2ccc(C(=O)N3CCC(c4ccccc4)CC3)cc2N1 [Compound 105, 6-(4-phenylpiperidine-1-carbonyl)-2H-benzo[b][1,4]oxazin-3(4H)-one]
≥ 100	CN(C)C1CCN(C(=O)c2ccc3c(c2)NC(=O)CO3)CC1 [Compound 106, 6-(4-(Dimethylamino)piperidine-1-carbonyl)-2H-benzo[b][1,4]oxazin-3(4H)-one]
≥ 100	O=C1COc2ccc(C(=O)NCC3CCCCC3)cc2N1 [Compound 108, N-(Cyclohexylmethyl)-3-oxo-3,4-dihydro-2H-benzo[b][1,4]oxazine-6-carboxamide]
1.26 to 10	O=C1COc2ccc(C(=O)N3CCOCC3)cc2N1 [Compound 109, 6-(Morpholine-4-carbonyl)-2H-benzo[b][1,4]oxazin-3(4H)-one]
≥ 100	O=C1COc2ccc(C(=O)NC3CCCCC3)cc2N1 [Compound 111, N-Cyclohexyl-3-oxo-3,4-dihydro-2H-benzo[b][1,4]oxazine-6-carboxamide]
≥ 100	O=C1COc2ccc(C(=O)CN3CCOCC3)cc2N1 [Compound 112, 6-(2-morpholinoacetyl)-2H-benzo[b][1,4]oxazin-3(4H)-one]
≥ 100	CN(C)C1CCN(CC(=O)c2ccc3c(c2)NC(=O)CO3)CC1 [Compound 113, 6-(2-(4-(Dimethylamino)piperidin-1-yl)acetyl)-2H-benzo[b][1,4]oxazin-3(4H)-one]
12.6 to 79.4	O=C1COc2ccc(C(=O)CN3CCC(c4ccccc4)CC3)cc2N1 [Compound 114, 6-(2-(4-Phenylpiperidin-1-yl)acetyl)-2H-benzo[b][1,4]oxazin-3(4H)-one]
≥ 100	O=C1COc2ccc(S(=O)(=O)N3CCCCC3)cc2N1 [Compound 115, 6-(piperidin-1-ylsulfonyl)-2H-benzo[b][1,4]oxazin-3(4H)-one]
12.6 to 79.4	O=C1COc2ccc(S(=O)(=O)N3CCOCC3)cc2N1 [Compound 116, 6-(Morpholinosulfonyl)-2H-benzo[b][1,4]oxazin-3(4H)-one]
1.26 to 10	O=C1COc2ccc(S(=O)(=O)N3CCCC3)cc2N1 [Compound 117, 6-(Pyrrolidin-1-ylsulfonyl)-2H-benzo[b][1,4]oxazin-3(4H)-one]
1.26 to 10	CC1Oc2ccc(S(=O)(=O)N3CCOCC3)cc2NC1=O (stereo not shown) [Compound 118, 2-Methyl-6-(morpholinosulfonyl)-2H-benzo[b][1,4]oxazin-3(4H)-one]
12.6 to 79.4	CC1Oc2ccc(S(=O)(=O)N3CCCCC3)cc2NC1=O (stereo not shown) [Compound 119, 2-Methyl-6-(piperidin-1-ylsulfonyl)-2H-benzo[b][1,4]oxazin-3(4H)-one]
≥ 100	CC1Oc2ccc(S(=O)(=O)N3CCCC3)cc2NC1=O (stereo not shown) [Compound 120, 2-Methyl-6-(pyrrolidin-1-ylsulfonyl)-2H-benzo[b][1,4]oxazin-3(4H)-one]
> 1	CC1Oc2ccc(S(=O)(=O)N3CCC(c4ccccc4)CC3)cc2NC1=O (stereo not shown) [Compound 121, 2-Methyl-6-(4-phenylpiperidin-1-ylsulfonyl)-2H-benzo[b][1,4]oxazin-3(4H)-one]
≥ 100	CCc1ccc2c(c1)NC(=O)CO2 [Compound 122, 6-Ethyl-2H-benzo[b][1,4]oxazin-3(4H)-one]
